{
  "source": "patent US20060281807A1",
  "about": "“Quassinoid compositions for the treatment of cancer and other proliferative diseases” (Tapestry Pharmaceuticals, Inc., priority 2005, published 2006)",
  "key": {"[1]": {"test_system": "SK-N-AS", "experiment": "MTT cytotoxicity assay (% kill), SK-N-AS", "assay_type": "cell-based, human", "settings": "MTT after five days", "method": "(§1) The following human tumor cell lines were obtained and cultured in sextuplicate microwells at 37° C. and 5% CO2 in humidified air and in 10% FBS in Eagles MEM: SK—N—FI, SK—N-AS, LS-174T, WiDr, HuTu-80, MCF7, NCI-AR, MES-Sar, and PL-45. Cells from each cell line were separately treated with an amount of one of the compounds of Formula I, II, or III (see Table 1). Cells were exposed to each compound (0.1 μg/mL or 1.0 μg/mL) for one hour or 24 hours, rinsed with drug-free media, and incubated for an additional five days. The number of viable cells after five days was measured using an MTT (3-(4,5-dimethylthiazol-2-yl)-2,5-diphenyltetrazolium bromide) assay (see, e.g., Mosmann, J. Immunol. Methods, 65(1-2), 55-63 (1983)).\n(§2) The cytotoxicity of each drug was determined and expressed as the percent of cells killed (“% kill”)."}, "[2]": {"test_system": "LS-174T", "experiment": "MTT cytotoxicity assay (% kill), LS-174T", "assay_type": "cell-based, human", "settings": "1 h exposure, MTT after five days", "method": "as §1, §2"}, "[3]": {"test_system": "WiDr", "experiment": "MTT cytotoxicity assay (% kill), WiDr", "assay_type": "cell-based, human", "settings": "1 h exposure", "method": "as §1, §2"}, "[4]": {"test_system": "NCI-AR", "experiment": "MTT cytotoxicity assay (% kill), NCI-AR", "assay_type": "cell-based, human", "settings": "1 h exposure", "method": "as §1, §2"}, "[5]": {"test_system": "MES-Sar", "experiment": "MTT cytotoxicity assay (% kill), MES-Sar", "assay_type": "cell-based, human", "settings": "1 h exposure", "method": "as §1, §2"}, "[6]": {"test_system": "Colon 38 (murine colon adenocarcinoma)", "experiment": "Disk diffusion assay, zone of inhibition, Colon 38; zone differentials, potency and product", "assay_type": "cell-based", "design": "key to C38ΔL1210 / C38ΔCFU: difference of zone of inhibition values, in zone units", "method_in_brief": "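Dissociated Colon 38 cells were plated in soft agar over a hard agar layer; 15 µl of compound dilution dried on a 6.5 mm disk was placed on the plate, and incubation ran 7–10 days. Inhibition zone was measured from disk edge to normal colonies, with the disk diameter = 200 units. Potency = dilution giving 500 units; the product multiplies it by the differentials against L1210 or CFU-GM.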"}},
  "data": [
    {"smiles": "CCC(O)(CC(=O)OC1C(=O)OC2CC3C(C)=C(O)C(=O)CC3(C)C3C(O)C(O)C4(C(=O)OC)OCC23C14)C(C)C", "note": "(mixture of isomers) [(+/−)-15-O-(3′-ethyl-3′-hydroxy-4′-methyl)-bruceolide]", "values": [
      {"measurement": "% Kill, SK-N-AS", "setting": "[1]; 0.1 μg/mL, 1 h exposure", "value": 0, "unit": "%"},
      {"measurement": "% Kill, SK-N-AS", "setting": "[1]; 0.1 μg/mL, 24 h exposure", "value": 0, "unit": "%"},
      {"measurement": "% Kill, SK-N-AS", "setting": "[1]; 1.0 μg/mL, 1 h exposure", "value": 0, "unit": "%"},
      {"measurement": "% Kill, SK-N-AS", "setting": "[1]; 1.0 μg/mL, 24 h exposure", "value": 0, "unit": "%"},
      {"measurement": "% Kill, LS-174T", "setting": "[2]; 0.1 μg/mL", "value": 0, "unit": "%"},
      {"measurement": "% Kill, LS-174T", "setting": "[2]; 1.0 μg/mL", "value": 0, "unit": "%"},
      {"measurement": "% kill, WiDr", "setting": "[3]; 0.1 μg/mL", "value": 0, "unit": "%"},
      {"measurement": "% kill, WiDr", "setting": "[3]; 1.0 μg/mL", "value": 0, "unit": "%"},
      {"measurement": "% kill, NCI-AR", "setting": "[4]; 0.1 μg/mL", "value": 0, "unit": "%"},
      {"measurement": "% kill, NCI-AR", "setting": "[4]; 1.0 μg/mL", "value": 0, "unit": "%"},
      {"measurement": "% kill, MES Sar", "setting": "[5]; 0.1 μg/mL", "value": 0, "unit": "%"},
      {"measurement": "% kill, MES Sar", "setting": "[5]; 1.0 μg/mL", "value": 0, "unit": "%"},
      {"measurement": "Sum", "setting": "[6]; C38ΔL1210 plus C38ΔCFU", "value": 1150},
      {"measurement": "C38ΔL1210", "setting": "[6]; difference between zone of inhibition values, Colon38 vs L1210 leukemia", "value": 600},
      {"measurement": "C38ΔCFU", "setting": "[6]; difference between zone of inhibition values, Colon38 vs normal cell CFU-GM", "value": 550},
      {"measurement": "Product", "setting": "[6]; potency multiplied by zone differentials", "value": 3450}
    ]}
  ]
}
